Laboratory results taken from the SangsterLogP compilation.

Test: method code SF-HPLC, from DOI: 10.1248/cpb.43.2238

logP | Compound
1.26 | CC(=O)c1ccsc1
0.81 | CNC(=O)c1ccsc1
2.32 | CCOC(=O)c1ccsc1
3.03 | CCCOC(=O)c1ccsc1
1.65 | CCCNC(=O)c1ccsc1
1.18 | CCNC(=O)c1ccsc1
1.27 | CC(=O)c1cccs1
1.83 | COC(=O)c1cccs1
1.58 | O=[N+]([O-])c1cccs1
1.18 | CCNC(=O)c1cccs1
1.68 | CCCNC(=O)c1cccs1
2.55 | Clc1ccsc1
1.34 | N#Cc1cccs1
2.13 | COc1cccs1
1.89 | c1ccsc1
0.84 | CNC(=O)c1cccs1
3.01 | CCCOC(=O)c1cccs1
